{"source": "patent US20240109903A1", "about": "“SUBSTITUTED HETEROCYCLES FOR TREATING CANCER” (Northwestern University, priority 2022, published 2024)", "key": {"[1]": {"system": "MV-4-11 acute myeloid leukemia cells", "experiment": "CellTiter-Glo 2.0 cell viability, MV-4-11", "type": "cell-based", "conditions": "Homo sapiens", "method": "2019 October; 94(4): 1813-1823.\nCell viability was assessed using the CellTiter-Glo 2.0 assay from Promega, which yields a signal proportional to the amount of ATP present in a cell population. Compounds were first dispensed into empty 96-well flat-bottom tissue culture-treated plates (Corning) using an Echo550. MV4-1 cells were diluted to a density of 0.1 million cells per ml, pipetted onto the compounds at a density of 1,000 cells per well for U937 and 3,000 cells per well for MV4-11, mixed, and incubated for 3 days at 37° C. with 5% C02. After incubating, 5 μl of cells from each well were added to 5 μl of CellTiter-Glo 2.0 reagent in a384-well white ProxiPlate (PerkinElmer), incubated for 20 minutes at ambient temperature, and luminescence was analyzed on an EnSpire plate reader. Graphing and regression analysis was performed in Graphpad Prism."}, "full NCI 60 cell panel": {"system": "full NCI 60 cell panel", "experiment": "NCI 60 Cell One-dose screen", "type": "cell-based, human", "conditions": "single high dose 10^−5 M, NCI 60 panel", "from_the_text": "Compounds were submitted to the NCI 60 Cell screen and tested at a single high dose (10^−5 M) in the full NCI 60 cell panel (see the following reference for details of using NCI 60 human tumor cell lines for screening anticancer drugs: Shoemaker R H. The NCI60 human tumor cell line anticancer drug screen. Nature Rev Cancer 2006; 6: 813-23). The One-dose data is reported as a mean graph of the percent growth of treated cells. The number reported for the One-dose assay is growth relative to the no-drug control, and relative to the time zero number of cells. This allows detection of both growth inhibition (values between 0 and 100) and lethality (values less than 0). For example, a value of 100 means no growth inhibition. A value of 40 would mean 60% growth inhibition. A value of 0 means no net growth over the course of the experiment. A value of −40 would mean 40% lethality. A value of −100 means all cells are dead. FIGS. 1-8 show the mean graph of percent growth against the NCI-60 cell panel for NUCC-0226674, NUCC-0226679, NUCC-0226680, NUCC-0226683, NUCC-0226689, NUCC-0226694, NUCC-0226695, and NUCC-0226698."}, "K-562": {"system": "K-562", "experiment": "NCI 60 five-dose screen K-562", "type": "cell-based", "conditions": "Homo sapiens, K562, five-dose"}, "SR": {"system": "SR", "experiment": "NCI 60 five-dose screen SR", "type": "cell-based, human", "conditions": "five-dose"}, "EKVX": {"system": "EKVX", "experiment": "NCI 60 five-dose screen EKVX", "type": "cell-based", "conditions": "Homo sapiens, five-dose"}, "HOP-62": {"system": "HOP-62", "experiment": "NCI 60 five-dose screen HOP-62", "type": "cell-based", "conditions": "Homo sapiens, five-dose"}, "HOP-92": {"system": "HOP-92", "experiment": "NCI 60 five-dose screen HOP-92", "type": "cell-based", "conditions": "Homo sapiens, five-dose"}, "NCI-H226": {"system": "NCI-H226", "experiment": "NCI 60 five-dose screen NCI-H226", "type": "cell-based", "conditions": "Homo sapiens, five-dose"}, "NCI-H322M": {"system": "NCI-H322M", "experiment": "NCI 60 five-dose screen NCI-H322M", "type": "cell-based", "conditions": "Homo sapiens, five-dose"}, "HCT-116": {"system": "HCT-116", "experiment": "NCI 60 five-dose screen HCT-116", "type": "cell-based", "conditions": "Homo sapiens, five-dose"}, "HCT-15": {"system": "HCT-15", "experiment": "NCI 60 five-dose screen HCT-15", "type": "cell-based", "conditions": "Homo sapiens, five-dose"}, "HT29": {"system": "HT29", "experiment": "NCI 60 five-dose screen HT29", "type": "cell-based", "conditions": "Homo sapiens, HT-29, five-dose"}, "SF-268": {"system": "SF-268", "experiment": "NCI 60 five-dose screen SF-268", "type": "cell-based", "conditions": "Homo sapiens, five-dose"}, "SF-295": {"system": "SF-295", "experiment": "NCI 60 five-dose screen SF-295", "type": "cell-based", "conditions": "Homo sapiens, five-dose"}, "SNB-75": {"system": "SNB-75", "experiment": "NCI 60 five-dose screen SNB-75", "type": "cell-based", "conditions": "Homo sapiens, five-dose"}, "SK-MEL-5": {"system": "SK-MEL-5", "experiment": "NCI 60 five-dose screen SK-MEL-5", "type": "cell-based", "conditions": "Homo sapiens, five-dose"}, "OVCAR-4": {"system": "OVCAR-4", "experiment": "NCI 60 five-dose screen OVCAR-4", "type": "cell-based", "conditions": "Homo sapiens, five-dose"}, "OVCAR-5": {"system": "OVCAR-5", "experiment": "NCI 60 five-dose screen OVCAR-5", "type": "cell-based", "conditions": "Homo sapiens, five-dose"}, "CAKI-1": {"system": "CAKI-1", "experiment": "NCI 60 five-dose screen CAKI-1", "type": "cell-based", "conditions": "Homo sapiens, five-dose"}, "MDA-MB-231/ATCC": {"system": "MDA-MB-231/ATCC", "experiment": "NCI 60 five-dose screen MDA-MB-231/ATCC", "type": "cell-based", "conditions": "Homo sapiens, five-dose"}, "[2]": {"conditions": "read-out: LC50 (the source's name) (converted)"}}, "note": "Like-named read-outs stand apart in the source and are kept apart here.", "data": [{"smiles": "FC(F)(F)c1cc2c(Cl)ncnc2n1CCC1CCOCC1", "note": "[NUCC-0226674]", "values": [{"measurement": "IC50", "setting": "[1]; MV4-11, 72 h, MV-4-11 cells, 3 days, CellTiter-Glo 2.0, read-out: IC50 (uM) [Cell Type: MV-4-11]", "value": 1.29, "unit": "µM"}, {"measurement": "IC50", "setting": "[1]; MV4-11, bound stated in text, read-out: IC50 against MV-4-11 acute myeloid leukemia cells", "value": "< 2", "unit": "µM"}, {"measurement": "growth inhibition in the One-Dose Screen", "setting": "full NCI 60 cell panel", "value": "significant growth inhibition"}, {"measurement": "GI50", "setting": "K-562", "value": 2.82, "unit": "µM"}, {"measurement": "IC50", "setting": "K-562", "value": 3.63, "unit": "µM"}, {"measurement": "IC (TGI)", "setting": "K-562", "value": 8.71, "unit": "µM"}, {"measurement": "CC50", "setting": "K-562; read-out: LC50 (the source's name)", "value": "≥ 100", "unit": "µM"}, {"measurement": "GI50", "setting": "SR; Homo sapiens", "value": 2.04, "unit": "µM"}, {"measurement": "IC50", "setting": "SR; Homo sapiens", "value": 3.72, "unit": "µM"}, {"measurement": "CC50", "setting": "SR; Homo sapiens, read-out: LC50 (the source's name)", "value": "≥ 100", "unit": "µM"}, {"measurement": "TGI", "setting": "SR", "value": "5.27 −log[M]"}, {"measurement": "GI50", "setting": "EKVX", "value": 12.6, "unit": "µM"}, {"measurement": "IC50", "setting": "EKVX", "value": 25.7, "unit": "µM"}, {"measurement": "IC (TGI)", "setting": "EKVX", "value": 28.2, "unit": "µM"}, {"measurement": "CC50", "setting": "EKVX; [2]", "value": 64.6, "unit": "µM"}, {"measurement": "GI50", "setting": "HOP-62", "value": 17, "unit": "µM"}, {"measurement": "IC50", "setting": "HOP-62", "value": 33.1, "unit": "µM"}, {"measurement": "IC (TGI)", "setting": "HOP-62", "value": 35.5, "unit": "µM"}, {"measurement": "CC50", "setting": "HOP-62; [2]", "value": 72.4, "unit": "µM"}, {"measurement": "GI50", "setting": "HOP-92", "value": 13.8, "unit": "µM"}, {"measurement": "IC50", "setting": "HOP-92", "value": 34.7, "unit": "µM"}, {"measurement": "IC (TGI)", "setting": "HOP-92", "value": 32.4, "unit": "µM"}, {"measurement": "CC50", "setting": "HOP-92; [2]", "value": 75.9, "unit": "µM"}, {"measurement": "GI50", "setting": "NCI-H226", "value": 13.8, "unit": "µM"}, {"measurement": "IC50", "setting": "NCI-H226", "value": 30.2, "unit": "µM"}, {"measurement": "IC (TGI)", "setting": "NCI-H226", "value": 28.8, "unit": "µM"}, {"measurement": "CC50", "setting": "NCI-H226; [2]", "value": 58.9, "unit": "µM"}, {"measurement": "GI50", "setting": "NCI-H322M", "value": 3.16, "unit": "µM"}, {"measurement": "IC50", "setting": "NCI-H322M", "value": 8.32, "unit": "µM"}, {"measurement": "IC (TGI)", "setting": "NCI-H322M", "value": 12.6, "unit": "µM"}, {"measurement": "CC50", "setting": "NCI-H322M; [2]", "value": 35.5, "unit": "µM"}, {"measurement": "GI50", "setting": "HCT-116", "value": 2.34, "unit": "µM"}, {"measurement": "IC50", "setting": "HCT-116", "value": 3.24, "unit": "µM"}, {"measurement": "IC (TGI)", "setting": "HCT-116", "value": 6.46, "unit": "µM"}, {"measurement": "CC50", "setting": "HCT-116; [2]", "value": 28.8, "unit": "µM"}, {"measurement": "GI50", "setting": "HCT-15", "value": 2.95, "unit": "µM"}, {"measurement": "IC50", "setting": "HCT-15", "value": 3.8, "unit": "µM"}, {"measurement": "IC (TGI)", "setting": "HCT-15", "value": 11, "unit": "µM"}, {"measurement": "CC50", "setting": "HCT-15; [2]", "value": 41.7, "unit": "µM"}, {"measurement": "GI50", "setting": "HT29", "value": 13.8, "unit": "µM"}, {"measurement": "IC50", "setting": "HT29", "value": 21.4, "unit": "µM"}, {"measurement": "IC (TGI)", "setting": "HT29", "value": 44.7, "unit": "µM"}, {"measurement": "CC50", "setting": "HT29; [2]", "value": "≥ 100", "unit": "µM"}, {"measurement": "GI50", "setting": "SF-268", "value": 2.45, "unit": "µM"}, {"measurement": "IC50", "setting": "SF-268", "value": 4.57, "unit": "µM"}, {"measurement": "IC (TGI)", "setting": "SF-268", "value": 7.24, "unit": "µM"}, {"measurement": "CC50", "setting": "SF-268; [2]", "value": 44.7, "unit": "µM"}, {"measurement": "GI50", "setting": "SF-295", "value": 13.8, "unit": "µM"}, {"measurement": "IC50", "setting": "SF-295", "value": 25.1, "unit": "µM"}, {"measurement": "IC (TGI)", "setting": "SF-295", "value": 27.5, "unit": "µM"}, {"measurement": "CC50", "setting": "SF-295; [2]", "value": 56.2, "unit": "µM"}, {"measurement": "GI50", "setting": "SNB-75", "value": 3.09, "unit": "µM"}, {"measurement": "IC50", "setting": "SNB-75", "value": 15.5, "unit": "µM"}, {"measurement": "IC (TGI)", "setting": "SNB-75", "value": 15.1, "unit": "µM"}, {"measurement": "CC50", "setting": "SNB-75; [2]", "value": 39.8, "unit": "µM"}, {"measurement": "GI50", "setting": "SK-MEL-5", "value": 2.82, "unit": "µM"}, {"measurement": "IC50", "setting": "SK-MEL-5", "value": 4.37, "unit": "µM"}, {"measurement": "IC (TGI)", "setting": "SK-MEL-5", "value": 9.33, "unit": "µM"}, {"measurement": "CC50", "setting": "SK-MEL-5; [2]", "value": 30.2, "unit": "µM"}, {"measurement": "GI50", "setting": "OVCAR-4", "value": 18.6, "unit": "µM"}, {"measurement": "IC50", "setting": "OVCAR-4", "value": 38, "unit": "µM"}, {"measurement": "IC (TGI)", "setting": "OVCAR-4", "value": 50.1, "unit": "µM"}, {"measurement": "CC50", "setting": "OVCAR-4; [2]", "value": "≥ 100", "unit": "µM"}, {"measurement": "GI50", "setting": "OVCAR-5", "value": 24, "unit": "µM"}, {"measurement": "IC50", "setting": "OVCAR-5", "value": 45.7, "unit": "µM"}, {"measurement": "IC (TGI)", "setting": "OVCAR-5", "value": 81.3, "unit": "µM"}, {"measurement": "CC50", "setting": "OVCAR-5; [2]", "value": "≥ 100", "unit": "µM"}, {"measurement": "GI50", "setting": "CAKI-1", "value": 14.5, "unit": "µM"}, {"measurement": "IC50", "setting": "CAKI-1", "value": 26.9, "unit": "µM"}, {"measurement": "IC (TGI)", "setting": "CAKI-1", "value": 30.2, "unit": "µM"}, {"measurement": "CC50", "setting": "CAKI-1; [2]", "value": 63.1, "unit": "µM"}, {"measurement": "GI50", "setting": "MDA-MB-231/ATCC", "value": 3.89, "unit": "µM"}, {"measurement": "IC50", "setting": "MDA-MB-231/ATCC", "value": 8.13, "unit": "µM"}, {"measurement": "IC (TGI)", "setting": "MDA-MB-231/ATCC", "value": 14.1, "unit": "µM"}, {"measurement": "CC50", "setting": "MDA-MB-231/ATCC; [2]", "value": 43.7, "unit": "µM"}]}]}
